pIC50: −log10 of the molar value.

The first test deals with T1, endogenous CETP from serum (Homo sapiens, UniProt P11597).
T1 construct: yielding a concentration of approximately 15 nM endogenous CETP in the assay; from tissue; host or cells: human serum
T1 sequence (P11597 18-493): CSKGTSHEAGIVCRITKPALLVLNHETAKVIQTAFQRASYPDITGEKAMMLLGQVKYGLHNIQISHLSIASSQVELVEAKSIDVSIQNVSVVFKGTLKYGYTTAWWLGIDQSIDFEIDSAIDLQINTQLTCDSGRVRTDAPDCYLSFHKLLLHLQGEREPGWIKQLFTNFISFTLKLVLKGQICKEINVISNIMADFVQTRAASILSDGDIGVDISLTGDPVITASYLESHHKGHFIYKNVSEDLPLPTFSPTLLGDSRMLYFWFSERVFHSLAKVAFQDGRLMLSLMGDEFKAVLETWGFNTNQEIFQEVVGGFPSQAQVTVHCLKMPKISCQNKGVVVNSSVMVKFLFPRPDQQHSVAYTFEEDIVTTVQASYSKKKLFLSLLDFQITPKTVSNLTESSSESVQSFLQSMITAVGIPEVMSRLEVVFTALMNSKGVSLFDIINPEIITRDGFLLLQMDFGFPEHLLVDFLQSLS
The test is described as follows: RTA assay of CETP-catalyzed CE and TG transfer in 95% human serum (95% RTA). To be noted: RTA assay in 95% human serum; read-out: IC50 (nM) RTA with 95% HS. The test is classed as biochemical.
Broadly, the IC50 is the concentration needed to halve the response being measured. Turning to `COc1ccc(CCC(=O)O)cc1-c1ccc(C(F)(F)F)cc1[C@@H]1CC[C@@H]2C1=NO[C@@H]2c1cc(C(F)(F)F)cc(C(F)(F)F)c1` [Example 4, 3-[2′-{(3S,3aR,6S)-3-[3,5-bis(trifluoromethyl)phenyl]-3a,4,5,6-tetrahydro-3H-cyclopenta[c]isoxazol-6-yl}-6-methoxy-4′-(trifluoromethyl)biphenyl-3-yl]propanoic acid], the IC50 was 3790 nM. The same measure, in the same setting: under `COc1ccc(-c2ccc(C(=O)O)cc2C)cc1-c1ccc(C(F)(F)F)cc1[C@@H]1CC[C@@H]2C1=NO[C@@H]2c1cc(C(F)(F)F)cc(C(F)(F)F)c1` [Example 5, 2″-{(3S,3aR,6S)-3-[3,5-bis(trifluoromethyl)phenyl]-3a,4,5,6-tetrahydro-3H-cyclopenta[c]isoxazol-6-yl}-4′-methoxy-2-methyl-4″- (trifluoromethyl)-1,1′:3′,1″- terphenyl-4-carboxylic acid] stands 145 nM; under `COc1ccc([C@H]2CC[C@H](C(=O)O)CC2)cc1-c1ccc(C(F)(F)F)cc1[C@@H]1CC[C@@H]2C1=NO[C@@H]2c1cc(C(F)(F)F)cc(C(F)(F)F)c1` [Example 6, trans-4-[2′-{(3S,3aR,6S)-3-[3,5-bis(trifluoromethyl)phenyl]-3a,4,5,6-tetrahydro-3H-cyclopenta[c]isoxazol-6-yl}-6-methoxy-4′-(trifluoromethyl)biphenyl-3-yl]cyclohexanecarboxylic acid], 383 nM; under `COc1ncc(-c2ccc(C(=O)O)cc2C)cc1-c1ccc(C(F)(F)F)cc1[C@@H]1CC[C@@H]2C1=NO[C@@H]2c1cc(F)cc(C(F)(F)F)c1` [Example 7, 4-(5-(2-((3S,3aR,6S)-3-(3-fluoro-5-(trifluoromethyl)phenyl)-3a,4,5,6-tetrahydro-3H-cyclopenta[c]isoxazol-6-yl)-4-(trifluoromethyl)phenyl)-6-methoxypyridin-3-yl)-3-methylbenzoic acid], 57 nM. Take `COc1ccc(-c2ccc(C(=O)O)cc2C)cc1-c1ccc(C(F)(F)F)cc1[C@@H]1CC[C@@H]2C1=NO[C@@H]2c1cc(F)cc(C(F)(F)F)c1` [Example 8, 2″-((3S,3aR,6S)-3-(3-fluoro-5-(trifluoromethyl)phenyl)-3a,4,5,6-tetrahydro-3H-cyclopenta[c]isoxazol-6-yl)-4′-methoxy-2-methyl-4″- (trifluoromethyl)-[1,1′:3′,1″- terphenyl]-4-carboxylic acid]: the IC50 came out at 36 nM.

As to `COc1ncc(-c2ccc(C(=O)O)cc2C)cc1-c1ccc(C(F)(F)F)nc1[C@@H]1CC[C@@H]2C1=NO[C@@H]2c1cc(C(F)(F)F)cc(C(F)(F)F)c1` [Example 9, 4-[2′-{3-[3,5-bis(trifluoromethyl)phenyl]-3a,4,5,6-tetrahydro-3H-cyclopenta[c]isoxazol-6-yl}-2 methoxy-6′-(trifluoromethyl)-3,3′-bipyridin-5-yl]-3-methylbenzoic acid], the IC50 was 287 nM.

Still in this test, the particulars now being: RTA assay in 95% human serum; read-out: IC50 RTA (95% HS).
Usually pIC50 stands for the negative decadic logarithm of the IC50, by convention in mol/L. On to `COc1ncc(-c2ccc(C(=O)O)cc2C)cc1-c1ccc(C(F)(F)F)cc1[C@@H]1CC[C@@H]2C1=NO[C@@H]2c1cc(C(F)(F)F)cc(C(F)(F)F)c1` [Example 1A, 4-(5-(2-((3S,3aR,6S)-3-(3,5-bis(trifluoromethyl)phenyl)-3a,4,5,6-tetrahydro-3H-cyclopenta[c]isoxazol-6-yl)-4-(trifluoromethyl)phenyl)-6-methoxypyridin-3-yl)-3-methylbenzoic acid], for which the negative logarithm of the IC50 (pIC50) is 7.15. With `COc1ncc(-c2ccc(C(=O)O)cc2C)cc1-c1ccc(C(F)(F)F)cc1[C@H]1CC[C@H]2C1=NO[C@H]2c1cc(C(F)(F)F)cc(C(F)(F)F)c1` [Example 1B, 4-(5-(2-((3R,3aS,6R)-3-(3,5-bis(trifluoromethyl)phenyl)-3a,4,5,6-tetrahydro-3H-cyclopenta[c]isoxazol-6-yl)-4-(trifluoromethyl)phenyl)-6-methoxypyridin-3-yl)-3-methylbenzoic acid], the pIC50 is 5.00. `COc1ccc(-c2ccc(C(=O)O)cc2C)cc1-c1cnc(C(F)(F)F)cc1[C@@H]1CC[C@@H]2C1=NO[C@@H]2c1cc(C(F)(F)F)cc(C(F)(F)F)c1` [Example 2A, 3′-(4-((3S,3aR,6S)-3-(3,5-bis(trifluoromethyl)phenyl)-3a,4,5,6-tetrahydro-3H-cyclopenta[c]isoxazol-6-yl)-6-(trifluoromethyl)pyridin-3-yl)-4′-methoxy-2-methyl-[1,1′-biphenyl]-4-carboxylic acid]: the pIC50 is 5.80. With `COc1ccc(-c2ccc(C(=O)O)cc2C)cc1-c1cnc(C(F)(F)F)cc1[C@H]1CC[C@H]2C1=NO[C@H]2c1cc(C(F)(F)F)cc(C(F)(F)F)c1` [Example 2B, 3′-(4-((3R,3aS,6R)-3-(3,5-bis(trifluoromethyl)phenyl)-3a,4,5,6-tetrahydro-3H-cyclopenta[c]isoxazol-6-yl)-6-(trifluoromethyl)pyridin-3-yl)-4′-methoxy-2-methyl-[1,1′-biphenyl]-4-carboxylic acid], the pIC50 was 5.00.

Tested on in the next test: not given
Assay: not given
To be noted: patients treated with anacetrapib along with baseline statin therapy, compared with just a statin; cited from earlier work.
On to `COc1cc(F)c(C(C)C)cc1-c1ccc(C(F)(F)F)cc1CN1C(=O)O[C@H](c2cc(C(F)(F)F)cc(C(F)(F)F)c2)[C@@H]1C` [Anacetrapib], for which the “decrease of LDL-C” value is given as 40% and the “increase of HDL-C” value is 138%.

(Values after patent US9663534B2, “Fused bicyclic isoxazolines as inhibitors of cholesterol ester transfer protein” (Merck Sharp & Dohme Corp., priority 2013, dated 2017).)
